The structures appear in SMILES notation.

The values below come from patent publication EP0061208A1, “Insecticidal control of ectoparasites” (JANSSEN PHARMACEUTICA N.V., priority 1981, dated 1982).

This assay relates to lice. The assay is described as follows: in-vivo experiment: single pour-on application to louse-infested sheep, evaluation of louse infestation. The arrangement: key: +: numphs or adults were detected; -: no live lice were found. The following applies: single pour-on along the back, solution 5% by weight in 2-(Z-butoxyethoxy)ethanol; for louse infestation, weeks 1: after 1 week; for louse infestation, weeks 2: after 2 weeks; for louse infestation, weeks 3: after 3 weeks; for louse infestation, weeks 4: after 4 weeks; for louse infestation, weeks 6.5: after 6.5 weeks. As for the experimental part: The efficacy of the ectoparasiticidal method and compositions of the present invention is illustrate by the following in-vivo experiment: • 4 moderately louse-infested sheep were given a single pour-on application of a solution comprising 5% by weight of cypermetrin • in 2-(Z-butoxyethoxy)ethanol. • The louse infestation was evaluated after 1, 2, 3, 4 and 6. 5 weeks. The evaluation of the louse-infestation is illustrated in table 1 wherein • + means that numphs or adults were detected, and • - means that no live lice were found.

Regarding `CC1(C)C(C=C(Cl)Cl)C1C(=O)OC(C#N)c1cccc(Oc2ccccc2)c1` (stereo not shown) [cypermetrin, [[cyano(3-phenoxyphenyl)]methyl] 2-(2,2-dichloroethenyl)-3,3-dimethylcyclopropanecarboxylate], for the setting “dose 10 mg/kg, 10 mg/kg”, the “louse infestation, weeks 1” value was “+ and -”; the “louse infestation, weeks 2” value was “+ and -”; the “louse infestation, weeks 3” value is “+ and -”; the “louse infestation, weeks 4” value was “+ and -”. Also, the “louse infestation, weeks 6.5” value (dose 10 mg/kg) was “-”. Where the note is “dose 20 mg/kg”, the “louse infestation, weeks 1” value is recorded as “-”; the “louse infestation, weeks 2” value is given as “-”; the “louse infestation, weeks 3” value is recorded as “-”; the “louse infestation, weeks 4” value is “-”. For the same compound, under “dose 20 mg/kg”, the “louse infestation, weeks 6.5” value is reported as “-”.
